Reference: US12668763B2, “Co-culturing device, motor neuron culturing device, multi-well plate, fabrication method of in vitro evaluation model of neuromuscular disease, and screening method of therapeutic agent against neuromuscular disease” (priority 2019, dated 2026)

System: motor neuron / skeletal muscle tissue (neuromuscular junction) of the evaluation model
Assay: Contraction of skeletal muscle tissue caused by stimulation of motor neurons in the evaluation model (device a), moving-image analysis
Format: cell-based, human

Compound	contraction of a skeletal muscle tissue after addition of the drug
N[C@@H](CCC(=O)O)C(=O)O [glutamic acid, Glutamic acid]	causes contraction of a skeletal muscle tissue
NC1=N[C@H](O)[C@H]2[C@H]3O[C@]4(O)O[C@@H]([C@@H](O)[C@@]2(N1)[C@@H]4O)[C@]3(O)CO [tetrodotoxin]	stops contraction of a skeletal muscle tissue
